In ChEMBL document CHEMBL2203242, “A regio- and stereoselective 1,3-dipolar cycloaddition for the synthesis of new-fangled dispiropyrrolothiazoles as antimycobacterial agents” (Bioorg Med Chem Lett, 2012):
Values after ≈ are worked out from the molar mass of the structure shown.

system: Mycobacterium tuberculosis; assay: Antimycobacterial activity against isoniazid-resistant Mycobacterium tuberculosis by agar dilution method; assay type: functional

Compound	MIC90 [µM]
COc1cc2c(cc1OC)C(=O)[C@]1(C2)[C@@H](c2ccccc2)[C@@H]2CSCN2[C@@]12C(=O)Nc1ccc(OC(F)(F)F)cc12	> 6.25
COc1cc2c(cc1OC)C(=O)[C@]1(C2)[C@@H](c2ccccc2Cl)[C@@H]2CSCN2[C@@]12C(=O)Nc1ccc(OC(F)(F)F)cc12	36.4 (≈ 22.5 µg/mL)
COc1cc2c(cc1OC)C(=O)[C@]1(C2)[C@@H](c2ccc(F)cc2)[C@@H]2CSCN2[C@@]12C(=O)N(N1CCOCC1)c1ccccc12	35.1 (≈ 21.1 µg/mL)
COc1ccc([C@H]2[C@@H]3CSCN3[C@@]3(C(=O)N(N4CCOCC4)c4ccccc43)[C@@]23Cc2cc(OC)c(OC)cc2C3=O)cc1OC	24.2 (≈ 15.6 µg/mL)
COc1cc2c(cc1OC)C(=O)[C@]1(C2)[C@@H](c2ccccc2)[C@@H]2CSCN2[C@@]12C(=O)N(N1CCOCC1)c1ccccc12	> 6.25
COc1cc2c(cc1OC)C(=O)[C@]1(C2)[C@@H](c2ccccc2Cl)[C@@H]2CSCN2[C@@]12C(=O)N(N1CCOCC1)c1ccccc12	18.3 (≈ 11.3 µg/mL)
COc1cc2c(cc1OC)C(=O)[C@]1(C2)[C@@H](c2ccc(F)cc2)[C@@H]2CSCN2[C@@]12C(=O)Nc1ccc(OC(F)(F)F)cc12	16.6 (≈ 9.99 µg/mL)
COc1ccc([C@H]2[C@@H]3CSCN3[C@@]3(C(=O)Nc4ccc(OC(F)(F)F)cc43)[C@@]23Cc2cc(OC)c(OC)cc2C3=O)cc1OC	22.2 (≈ 14.3 µg/mL)
NNC(=O)c1ccncc1 [ISONIAZID]	11.2 (≈ 1.54 µg/mL)
